Like-named read-outs stand apart in the source and are kept apart here.
What was measured:
[1] = tested on: HCV GT1a(H77) replicon; test: HCV replicon luciferase reporter assay, genotype 1a; assay type: cell-based, HCV genotype 1a; settings: Hepatitis C virus, 72 h, HUH-7 cells, Renilla luciferase, 3 days incubation
Excerpt: A stable HCV GT1a(H77) replicon luciferase reporter cell line (Yanagi M, Purcell RH, Emerson S U, et al. Transcripts from a single full-length cDNA clone of hepatitis C virus are infectious when directly transfected into the liver of a chimpanzee. Proc Natl Acad Sci USA 1997; 94(16):8738-8743) was generated as described previously for the genotype 1b(Con1) replicon luciferase cell line. The replicon construct was modified by introducing mutations into the genes encoding the NS3 helicase domain (proline replaced by leucine at position 1496) and NS5A (serine to isoleucine at position 2204) to improve replication in cell culture.
(§1) HCV replicon luciferase assays were developed to monitor the inhibitory effects of compounds described in the disclosure on HCV genotypes 1a and 1b viral replication. HUH-7 cells, constitutively expressing the HCV replicon, were grown in Dulbecco's Modified Eagle Media (DMEM) (Gibco-BRL) containing 10% Fetal calf serum (FCS) (Sigma) and 1 mg/mL G418 (Gibco-BRL). Compounds were serially diluted 3 folds in DMSO for a twenty-point titration and subsequently transferred to sterile 384-well tissue-culture treated plates (Corning cat #3571). The plates were then seeded with 50 μL of cells at a density of 3.0×10^3 cells/well in DMEM containing 4% FCS (final DMSO concentration at 0.5%). After 3 days incubation at 37° C., cells were analyzed for Renilla Luciferase activity using the EnduRen as substrate (Promega cat #E6485). The EnduRen substrate was diluted in DMEM and then added to the plates to a final concentration of 7.5 μM. The plates were incubated for 2 hrs at 37° C. and then read immediately for 30 seconds with Viewlux Imager (PerkinElmer) using a luminescence program. To assess cytotoxicity of compounds, CC50 values were generated by multiplexing the EnduRen-containing plates with Cell Titer-Blue (Promega, cat #G8082). Cell-Titer Blue (3 μL) was added to each well and incubated for 8 hrs at 37° C. The fluorescence signal from each well was read, with an excitation wavelength at 525/10 nm and an emission wavelength of 598/10 nm, using the Viewlux Imager.
(§2) The EC50 values for compounds were calculated by using a four-parameter logistic equation: y=A+[…])/(1+((C/x)^D))), where A and B denotes minimal and maximal % inhibition, respectively, C is the EC50, D is the hill slope and x represents compound concentration.

[2] = tested on: HCV GT1b(Con1) replicon; test: HCV replicon luciferase reporter assay, genotype 1b; assay type: cell-based, HCV genotype 1b; settings: Hepatitis C virus, 72 h, HUH-7 cells, Renilla luciferase, 3 days incubation
Excerpt: An HCV GT1b(Con1) replicon cell system was established as described by Lohmann V, Korner F, Koch J, Herian U, Theilmann L, Bartenschlager R., Science 285(5424):110-3 (1999) and modified to introduce a luciferase reporter (Krieger N, Lohmann V, and Bartenschlager R, J. Virol. 75(10):4614-4624 (2001)). cDNA encoding a humanized form of the Renilla luciferase gene, and a linker sequence fused directly to the 3′-end of the luciferase gene were introduced into the replicon construct using an Asc1 restriction site located in core, directly upstream of the neomycin marker gene. The adaptive mutation at position 1179 (serine to isoleucine) was also introduced (Blight K J, Kolykhalov, A A, Rice, C M, Science 290(5498):1972-1974). A stable cell line constitutively expressing this HCV replicon construct was generated by first linearizing plasmid DNAs with ScaI. RNA transcripts were synthesized in vitro using the T7 MegaScript transcription kit (Ambion, Austin, Tex.) according to manufacturer's directions. In vitro transcripts of the cDNA were transfected into the human hepatoma cell line, HUH-7. […] Resulting cell lines were characterized for positive and negative strand RNA production and protein production over time.
as §1, §2

Row | SMILES | EC50 ([1]; read-out: LE_1a (EC50, range)) [nM] | EC50 ([2]; read-out: LE_1b (EC50, range)) [nM] | EC50 ([1]; read-out: LE_1a (EC50)) [nM] | EC50 ([2]; read-out: LE_1b (EC50)) [nM]
1 | COc1cccc(-c2cc(O[C@@H]3C[C@H]4C(=O)N[C@]5(C(=O)NS(=O)(=O)C6(C)CC6)C[C@H]5/C=C\CCC(C)C[C@@H](C)[C@H](NC(=O)OC(C)(C)C(F)(F)F)C(=O)N4C3)cc(-c3ccc(OC(C)C)cc3)n2)n1 (stereo in doubt) [Compound 1012, 1,1,1-trifluoro-2-methylpropan-2-yl ((2R,6S,7R,9R,13aS,14aR,16aS,Z)-2-((6-(4-isopropoxyphenyl)-6′-methoxy-[2,2′-bipyridin]-4-yl)oxy)-7,9-dimethyl-14a-(((1-methylcyclopropyl)sulfonyl)carbamoyl)-5,16-dioxo-1,2,3,5,6,7,8,9,10,11,13a,14,14a,15,16,16a-hexadecahydrocyclopropa[e]pyrrolo[1,2-a][1,4]diazacyclopentadecin-6-yl)carbamate] | 5.01 to 35 | 5.01 to 35 |  | 
2 | CC(C)Oc1ccc(-c2cc(O[C@@H]3C[C@H]4C(=O)N[C@]5(C(=O)NS(=O)(=O)C6(C)CC6)C[C@H]5/C=C\CC[C@@H](C)C[C@@H](C)[C@H](NC(=O)OC(C)(C)C(F)(F)F)C(=O)N4C3)cc(-c3cnccn3)n2)cc1 [Compound 1001, 1,1,1-trifluoro-2-methylpropan-2-yl ((2R,6S,7R,9R,13aS,14aR,16aS,Z)-2-((2-(4-isopropoxyphenyl)-6-(pyrazin-2-yl)pyridin-4-yl)oxy)-7,9-dimethyl-14a-(((1-methylcyclopropyl)sulfonyl)carbamoyl)-5,16-dioxo-1,2,3,5,6,7,8,9,10,11,13a,14,14a,15,16,16a-hexadecahydrocyclopropa[e]pyrrolo[1,2-a][1,4]diazacyclopentadecin-6-yl)carbamate] | 1.01 to 5 | 0.51 to 1 |  | 
3 | CC(C)Oc1ccc(-c2cc(O[C@@H]3C[C@H]4C(=O)N[C@]5(C(=O)NS(=O)(=O)C6(C)CC6)C[C@H]5/C=C\CC[C@H](C)C[C@@H](C)[C@H](NC(=O)OC(C)(C)C(F)(F)F)C(=O)N4C3)cc(-c3cnccn3)n2)cc1 [Compound 1002, 1,1,1-trifluoro-2-methylpropan-2-yl ((2R,6S,7R,9S,13aS,14aR,16aS,Z)-2-((2-(4-isopropoxyphenyl)-6-(pyrazin-2-yl)pyridin-4-yl)oxy)-7,9-dimethyl-14a-(((1-methylcyclopropyl)sulfonyl)carbamoyl)-5,16-dioxo-1,2,3,5,6,7,8,9,10,11,13a,14,14a,15,16,16a-hexadecahydrocyclopropa[e]pyrrolo[1,2-a][1,4]diazacyclopentadecin-6-yl)carbamate] | 35 to 359 | 5.01 to 35 | 59 | 11.6
4 | CC(C)Oc1ccc(-c2cc(O[C@@H]3C[C@H]4C(=O)N[C@]5(C(=O)NS(=O)(=O)C6(C)CC6)C[C@H]5/C=C\CC[C@@H](C)C[C@@H](C)[C@H](NC(=O)OC(C)(C)C(F)(F)F)C(=O)N4C3)cc(-c3cncs3)n2)cc1 [Compound 1003, 1,1,1-trifluoro-2-methylpropan-2-yl ((2R,6S,7R,9R,13aS,14aR,16aS,Z)-2-((2-(4-isopropoxyphenyl)-6-(thiazol-5-yl)pyridin-4-yl)oxy)-7,9-dimethyl-14a-(((1-methylcyclopropyl)sulfonyl)carbamoyl)-5,16-dioxo-1,2,3,5,6,7,8,9,10,11,13a,14,14a,15,16,16a-hexadecahydrocyclopropa[e]pyrrolo[1,2-a][1,4]diazacyclopentadecin-6-yl)carbamate] | 1.01 to 5 | 1.01 to 5 |  | 
5 | C[C@@H]1CC/C=C\[C@@H]2C[C@@]2(C(=O)NS(=O)(=O)C2(C)CC2)NC(=O)[C@@H]2C[C@@H](Oc3ncccc3C(F)(F)F)CN2C(=O)[C@@H](NC(=O)OC(C)(C)C)[C@H](C)C1 [Compound 1065, tert-butyl ((2R,6S,7R,9R,13aS,14aR,16aS,Z)-7,9-dimethyl-14a-(((1-methylcyclopropyl)sulfonyl)carbamoyl)-5,16-dioxo-2-((3-(trifluoromethyl)pyridin-2-yl)oxy)-1,2,3,5,6,7,8,9,10,11,13a,14,14a,15,16,16a-hexadecahydrocyclopropa[e]pyrrolo[1,2-a][1,4]diazacyclopentadecin-6-yl)carbamate] |  | 1.01 to 5 |  | 
6 | C[C@@H]1CC/C=C\[C@@H]2C[C@@]2(C(=O)NS(=O)(=O)C2(C)CC2)NC(=O)[C@@H]2C[C@@H](Oc3ncccc3C(F)(F)F)CN2C(=O)[C@@H](NC(=O)OC(C)(C)C(F)(F)F)[C@H](C)C1 [Compound 1066, 1,1,1-trifluoro-2-methylpropan-2-yl ((2R,6S,7R,9R,13aS,14aR,16aS,Z)-7,9-dimethyl-14a-(((1-methylcyclopropyl)sulfonyl)carbamoyl)-5,16-dioxo-2-((3-(trifluoromethyl)pyridin-2-yl)oxy)-1,2,3,5,6,7,8,9,10,11,13a,14,14a,15,16,16a-hexadecahydrocyclopropa[e]pyrrolo[1,2-a][1,4]diazacyclopentadecin-6-yl)carbamate] |  | 0.51 to 1 |  | 
7 | C[C@@H]1CC/C=C\[C@@H]2C[C@@]2(C(=O)NS(=O)(=O)C2(C)CC2)NC(=O)[C@@H]2C[C@@H](Oc3nccc(Cl)c3C(F)(F)F)CN2C(=O)[C@@H](NC(=O)OC(C)(C)C(F)(F)F)[C@H](C)C1 [Compound 1067, 1,1,1-trifluoro-2-methylpropan-2-yl ((2R,6S,7R,9R,13aS,14aR,16aS,Z)-2-((4-chloro-3-(trifluoromethyl)pyridin-2-yl)oxy)-7,9-dimethyl-14a-(((1-methylcyclopropyl)sulfonyl)carbamoyl)-5,16-dioxo-1,2,3,5,6,7,8,9,10,11,13a,14,14a,15,16,16a-hexadecahydrocyclopropa[e]pyrrolo[1,2-a][1,4]diazacyclopentadecin-6-yl)carbamate] |  | 0.1 to 0.5 |  | 
8 | COc1cccc(O[C@@H]2C[C@H]3C(=O)N[C@]4(C(=O)NS(=O)(=O)C5(C)CC5)C[C@H]4/C=C\CC[C@@H](C)C[C@@H](C)[C@H](NC(=O)OC(C)(C)C(F)(F)F)C(=O)N3C2)n1 [Compound 1068, 1,1,1-trifluoro-2-methylpropan-2-yl ((2R,6S,7R,9R,13aS,14aR,16aS,Z)-2-((6-methoxypyridin-2-yl)oxy)-7,9-dimethyl-14a-(((1-methylcyclopropyl)sulfonyl)carbamoyl)-5,16-dioxo-1,2,3,5,6,7,8,9,10,11,13a,14,14a,15,16,16a-hexadecahydrocyclopropa[e]pyrrolo[1,2-a][1,4]diazacyclopentadecin-6-yl)carbamate] |  | 1.01 to 5 |  | 
9 | C[C@@H]1CC/C=C\[C@@H]2C[C@@]2(C(=O)NS(=O)(=O)C2(C)CC2)NC(=O)[C@@H]2C[C@@H](Oc3ncccc3Cl)CN2C(=O)[C@@H](NC(=O)OC(C)(C)C(F)(F)F)[C@H](C)C1 [Compound 1069, 1,1,1-trifluoro-2-methylpropan-2-yl ((2R,6S,7R,9R,13aS,14aR,16aS,Z)-2-((3-chloropyridin-2-yl)oxy)-7,9-dimethyl-14a-(((1-methylcyclopropyl)sulfonyl)carbamoyl)-5,16-dioxo-1,2,3,5,6,7,8,9,10,11,13a,14,14a,15,16,16a-hexadecahydrocyclopropa[e]pyrrolo[1,2-a][1,4]diazacyclopentadecin-6-yl)carbamate] |  | 0.1 to 0.5 |  | 

Reference: patent publication US9334279B2, “Hepatitis C virus inhibitors” (BRISTOL-MYERS SQUIBB COMPANY, priority 2012, dated 2016)
